Reference: patent publication US9321756B2, “Azole compounds as PIM inhibitors” (priority 2011, dated 2016)
Like-named read-outs stand apart in the source and are kept apart here.

Legend:
[1] = biological target: full length recombinant Pim-1 (Homo sapiens (Human), UniProt P11309); test: Pim enzyme assay (HTRF, phosphorylation of biotinylated-BAD (S112) peptide), Pim-1; assay type: biochemical
[2] = biological target: full length recombinant Pim-2 (Homo sapiens (Human), UniProt Q9P1W9); test: Pim enzyme assay (HTRF, phosphorylation of biotinylated-BAD (S112) peptide), Pim-2; assay type: biochemical; conditions: read-out: Pim2_IC50
[3] = Pim-1 enzyme assay, read-out: Pim_1_IC50
[4] = HTRF, 10-point curve, high dose 1 uM, 2 h at RT, read-out: Pim_1_IC50
[5] = HTRF, 10-point curve, high dose 1 uM, 45 min at RT

full length recombinant Pim-2, sequence (Q9P1W9 whole entry): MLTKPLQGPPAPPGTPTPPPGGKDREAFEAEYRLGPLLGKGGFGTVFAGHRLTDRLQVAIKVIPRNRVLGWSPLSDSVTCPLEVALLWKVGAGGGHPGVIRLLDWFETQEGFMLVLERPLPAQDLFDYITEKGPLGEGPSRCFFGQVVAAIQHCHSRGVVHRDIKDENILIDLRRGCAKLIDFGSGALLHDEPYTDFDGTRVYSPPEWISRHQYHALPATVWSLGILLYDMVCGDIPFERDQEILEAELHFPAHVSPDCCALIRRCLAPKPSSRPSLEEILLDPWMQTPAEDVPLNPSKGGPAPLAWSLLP
full length recombinant Pim-1, sequence (P11309 whole entry): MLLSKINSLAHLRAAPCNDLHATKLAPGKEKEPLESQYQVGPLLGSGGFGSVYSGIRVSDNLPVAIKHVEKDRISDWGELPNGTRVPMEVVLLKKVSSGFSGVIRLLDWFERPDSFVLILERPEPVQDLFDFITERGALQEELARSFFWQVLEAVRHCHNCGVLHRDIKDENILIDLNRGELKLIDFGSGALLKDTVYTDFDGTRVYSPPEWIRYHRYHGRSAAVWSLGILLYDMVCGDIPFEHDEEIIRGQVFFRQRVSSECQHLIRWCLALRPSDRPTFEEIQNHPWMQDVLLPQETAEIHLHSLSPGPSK

Structure (SMILES) | IC50 ([2]; Pim-2 enzyme assay) | IC50 [1, 3] | other results
CC(C)Nc1cncc(-c2c[nH]c3ccc(-c4nc(N)no4)cc23)n1 [Example 67, 5-(3-(6-(isopropylamino)pyrazin-2-yl)-1H-indol-5-yl)-1,2,4-oxadiazol-3-amine] | – | 5.79 nM | IC50 [2]: 58.9 nM
COc1ccnc(-c2c[nH]c3ccc(-c4nnc(NC(C)C)o4)cc23)n1 [Example 59, N-isopropyl-5-(3-(4-methoxypyrimidin-2-yl)-1H-indol-5-yl)-1,3,4-oxadiazol-2-amine] | 16.7 nM | 30.4 nM | –
CNC(=O)c1ccnc(-c2c[nH]c3ccc(-c4nnc(NC(C)C)o4)cc23)n1 [Example 282, N-methyl-2-(5-(5-((1-methylethyl)amino)-1,3,4-oxadiazol-2-yl)-1H-indol-3-yl)-4-pyrimidinecarboxamide 2,2,2-trifluoroacetate] | – | – | IC50 [1, 4]: 509 nM; IC50 [2, 5]: 652 nM
CNC(=O)c1cncc(-c2c[nH]c3ccc(-c4nnc(NC(C)C)o4)cc23)c1 [Example 286, 5-(5-(5-(isopropylamino)-1,3,4-oxadiazol-2-yl)-1H-indol-3-yl)-N-methylnicotinamide] | – | – | IC50 [1, 4]: 713 nM; IC50 [2, 5]: 843 nM
CC1(C)COCCN1c1nnc(-c2ccc3[nH]cc(-c4cncc(C5CC5)n4)c3c2)o1 [Example 253, 3-(6-cyclopropyl-2-pyrazinyl)-5-(5-(3,3-dimethyl-4-morpholinyl)-1,3,4-oxadiazol-2-yl)-1H-indole] | 141 nM | 26.7 nM | –
CC(C)Nc1cncc(-c2c[nH]c3ccc(-c4nsc(N)n4)cc23)n1 [Example 66, 3-(3-(6-(isopropylamino)pyrazin-2-yl)-1H-indol-5-yl)-1,2,4-thiadiazol-5-amine] | 649 nM | 20.1 nM | –
CC(C)Nc1cncc(-c2c[nH]c3ccc(-c4noc(N)n4)cc23)n1 [Example 70, 3-(3-(6-(isopropylamino)pyrazin-2-yl)-1H-indol-5-yl)-1,2,4-oxadiazol-5-amine] | 362 nM | 30.4 nM | –
CNc1nnc(-c2ccc3[nH]cc(-c4ccccc4)c3c2)s1 [Example 223, N-methyl-5-(3-phenyl-1H-indol-5-yl)-1,3,4-thiadiazol-2-amine] | 1950 nM | 1140 nM | –
CC(C)(C)Nc1nnc(-c2ccc3[nH]cc(-c4ncc(C(N)=O)s4)c3c2)o1 [Example 277, 2-(5-(5-(tert-butylamino)-1,3,4-oxadiazol-2-yl)-1H-indol-3-yl)-1,3-thiazole-5-carboxamide] | – | – | IC50 [1, 4]: 58.2 nM; IC50 [2, 5]: 393 nM
CNc1nnc(-c2ccc3[nH]cc(-c4nccc(-c5ccccc5)n4)c3c2)s1 [Example 131, N-methyl-5-(3-(4-phenyl-2-pyrimidinyl)-1H-indol-5-yl)-1,3,4-thiadiazol-2-amine] | 35.8 nM | 88.2 nM | –
CC(C)Nc1nnc(-c2ccc3[nH]cc(NC(=O)c4ccncc4)c3c2)o1 [Example 304, N-(5-(5-((1-methylethyl)amino)-1,3,4-oxadiazol-2-yl)-1H-indol-3-yl)-4-pyridinecarboxamide] | – | – | IC50 [1, 4]: 70 nM; IC50 [2, 5]: 115 nM
Nc1nnc(-c2ccc3[nH]cc(-c4ccccc4F)c3n2)o1 [Example 9, 5-(3-(2-fluorophenyl)-1H-pyrrolo[3,2-b]pyridin-5-yl)-1,3,4-oxadiazol-2-amine] | 717 nM | 644 nM | –
CC(C)Nc1nnc(-c2ccc3[nH]cc(-c4ccc(C(N)=O)cc4F)c3c2)o1 [Example 290, 3-fluoro-4-(5-(5-(isopropylamino)-1,3,4-oxadiazol-2-yl)-1H-indol-3-yl)benzamide] | – | – | IC50 [1]: 69.6 nM; IC50 [2, 5]: 238 nM
CC(C)Nc1nnc(-c2ccc3[nH]cc(-c4ncc(C(N)=O)s4)c3c2)o1 [Example 276, 2-(5-(5-((1-methylethyl)amino)-1,3,4-oxadiazol-2-yl)-1H-indol-3-yl)-1,3-thiazole-5-carboxamide] | – | – | IC50 [1, 4]: 111 nM; IC50 [2, 5]: 315 nM
CC(C)Nc1nnc(-c2ccc3[nH]cc(-c4nc(C(=O)NC5CC5)cs4)c3c2)o1 [Example 278, N-cyclopropyl-2-(5-(5-((1-methylethyl)amino)-1,3,4-oxadiazol-2-yl)-1H-indol-3-yl)-1,3-thiazole-4-carboxamide] | – | – | IC50 [1, 4]: 186 nM; IC50 [2, 5]: 408 nM
CCN(C)c1cnc(-c2c[nH]c3ccc(-c4nnc(N)s4)cc23)cn1 [Example 188, 5-(5-(5-amino-1,3,4-thiadiazol-2-yl)-1H-indol-3-yl)-N-ethyl-N-methyl-2-pyrazinamine] | 1220 nM | 398 nM | –
CC(C)c1ccnc(-c2c[nH]c3ccc(-c4nnc(NCC#N)o4)cc23)n1 [Example 45, 2-((5-(3-(4-isopropylpyrimidin-2-yl)-1H-indol-5-yl)-1,3,4-oxadiazol-2-yl)amino)acetonitrile] | 2.83 nM | 3.83 nM | –
Cc1cncc(-c2c[nH]c3ccc(-c4nnc(-c5ccccc5)s4)cc23)n1 [Example 274, 3-(6-methyl-2-pyrazinyl)-5-(5-phenyl-1,3,4-thiadiazol-2-yl)-1H-indole] | > 1000 nM | – | IC50 [1]: > 1000 nM
CC(C)Nc1nnc(-c2ccc3[nH]cc(-c4nccc(OC5CCCN(C)C5)n4)c3c2)o1 (stereo not shown) [Example 62, N-isopropyl-5-(3-(4-((1-methylpiperidin-3-yl)oxy)pyrimidin-2-yl)-1H-indol-5-yl)-1,3,4-oxadiazol-2-amine 2,2,2-trifluoroacetate] | – | 69.5 nM | IC50 [2]: 207 nM
CC(C)Nc1nnc(-c2ccc3[nH]cc(-c4cccc(C(=O)N(C)C)n4)c3c2)o1 [Example 292, N,N-dimethyl-6-(5-(5-((1-methylethyl)amino)-1,3,4-oxadiazol-2-yl)-1H-indol-3-yl)-2-pyridinecarboxamide] | – | – | IC50 [1, 4]: 496 nM; IC50 [2, 5]: 541 nM
CNC(=O)c1ccc(F)c(-c2c[nH]c3ccc(-c4nnc(NC(C)C)o4)cc23)c1 [Example 289, 4-fluoro-3-(5-(5-(isopropylamino)-1,3,4-oxadiazol-2-yl)-1H-indol-3-yl)-N-methylbenzamide] | – | – | IC50 [1]: 233 nM; IC50 [2, 5]: 301 nM
CC(C)Nc1nc(-c2ccc3[nH]cc(-c4cncc(OC(C)C)n4)c3c2)no1 [Example 73, 3-(3-(6-isopropoxypyrazin-2-yl)-1H-indol-5-yl)-N-isopropyl-1,2,4-oxadiazol-5-amine] | – | 45.9 nM | IC50 [2]: 504 nM

Further lines, with some results ahead:

IC50 ([2]; Pim-2 enzyme assay) | IC50 [1, 3] | Structure (SMILES) | other results
70.8 nM | – | CC(C)Nc1nnc(-c2ccc3[nH]cc(-c4nccc(C(N)=O)n4)c3c2)o1 [Example 261, 2-(5-(5-((1-methylethyl)amino)-1,3,4-oxadiazol-2-yl)-1H-indol-3-yl)-4-pyrimidinecarboxamide] | IC50 [1]: 105 nM
838 nM | > 1000 nM | Nc1nnc(-c2ccc3[nH]cc(-c4cc(C(F)(F)F)ncn4)c3c2)o1 [Example 95, 5-(3-(6-(trifluoromethyl)-4-pyrimidinyl)-1H-indol-5-yl)-1,3,4-oxadiazol-2-amine] | –
215 nM | 105 nM | c1ccc(Nc2nnc(-c3ccc4[nH]cc(-c5cncc(C6CC6)n5)c4c3)o2)cc1 [Example 40, 5-(3-(6-Cyclopropylpyrazin-2-yl)-1H-indol-5-yl)-N-phenyl-1,3,4-oxadiazol-2-amine] | –
13.5 nM | 20.1 nM | CC(C)Nc1nnc(-c2ccc3[nH]cc(-c4nccc(OC(C)C)n4)c3c2)o1 [Example 60, 5-(3-(4-isopropoxypyrimidin-2-yl)-1H-indol-5-yl)-N-isopropyl-1,3,4-oxadiazol-2-amine] | –
46.8 nM | 45.9 nM | CC(C)Nc1nnc(-c2ccc3[nH]cc(-c4nccc(N5CCN(C)C(=O)C5)n4)c3c2)o1 [Example 61, 4-(2-(5-(5-(isopropylamino)-1,3,4-oxadiazol-2-yl)-1H-indol-3-yl)pyrimidin-4-yl)-1-methylpiperazin-2-one] | –
> 1000 nM | 186 nM | CC(=O)Nc1nc(-c2ccc3[nH]cc(-c4cncc(OC(C)C)n4)c3c2)no1 [Example 74, N-(3-(3-(6-isopropoxypyrazin-2-yl)-1H-indol-5-yl)-1,2,4-oxadiazol-5-yl)acetamide] | –
2.77 nM | 2.53 nM | CC(C)Nc1nnc(-c2ccc3[nH]cc(-c4ncc(F)c(C5CC5)n4)c3c2)o1 [Example 262, 5-(3-(4-cyclopropyl-5-fluoro-2-pyrimidinyl)-1H-indol-5-yl)-N-(1-methylethyl)-1,3,4-oxadiazol-2-amine] | –
28.7 nM | – | COc1nc(-c2c[nH]c3ccc(-c4nnc(NC(C)(C)C)o4)cc23)ncc1F [Example 55, N-tert-butyl-5-(3-(5-fluoro-4-methoxypyrimidin-2-yl)-1H-indol-5-yl)-1,3,4-oxadiazol-2-amine 2,2,2-trifluoroacetate] | IC50 [1]: 8.77 nM
34.8 nM | 8.77 nM | Cc1ccnc(-c2c[nH]c3ccc(-c4nnc(NC(C)(C)C)o4)cc23)n1 [Example 270, N-tert-butyl-5-(3-(4-methyl-2-pyrimidinyl)-1H-indol-5-yl)-1,3,4-oxadiazol-2-amine] | –
383 nM | 241 nM | CC(C)Nc1nnc(-c2ccc3[nH]cc(-c4nc(C5CC5)n[nH]4)c3c2)o1 [Example 263, 5-(3-(3-cyclopropyl-1H-1,2,4-triazol-5-yl)-1H-indol-5-yl)-N-(1-methylethyl)-1,3,4-oxadiazol-2-amine] | –
30.8 nM | 92.5 nM | CC(C)Cc1nnc(-c2ccc3[nH]cc(-c4nccc(C5CC5)n4)c3c2)o1 [Example 51, 2-(3-(4-cyclopropylpyrimidin-2-yl)-1H-indol-5-yl)-5-isobutyl-1,3,4-oxadiazole] | –
28.5 nM | 11.8 nM | CC(C)(C)Nc1nnc(-c2ccc3[nH]cc(-c4nccc(C(N)=O)n4)c3c2)o1 [Example 273, 2-(5-(5-(tert-butylamino)-1,3-4-oxadiazol-2-yl)-1H-indol-3-yl)-4-pyrimidinecarboxamide] | –
538 nM | 69.5 nM | CC(C)Oc1cncc(-c2c[nH]c3ccc(-c4noc(N)n4)cc23)n1 [Example 71, 3-(3-(6-isopropoxypyrazin-2-yl)-1H-indol-5-yl)-1,2,4-oxadiazol-5-amine] | –
